We go through one molecule from patent US20240217973A1, “IMIDAZOPYRIDINE COMPOUNDS AND USE THEREOF” (MEDSHINE DISCOVERY INC., priority 2021, published 2024).

The nature of this data set: Hepatocyte metabolic stability experiment (HMS), H. The format is in vitro ADME. The conditions noted are these: human, H hepatocytes, read-out: HMS CLint(liver). As for the experimental part: Experimental operations: 198 μL of hepatocyte suspension (0.51×10^6 cells/mL) was added to the preheated incubation plate, and 198 μL of culture medium without hepatocytes was added to T0-MC and T120-MC incubation plates for the culture medium control group, and all incubation plates were pre-incubated for 10 minutes in a 37° C. incubator. Then 2 μL of the working solution of the test and control compounds were added and mixed well, and the incubation plate was immediately put into the plate shaker in the incubator, the rotation speed was adjusted to about 650 rpm, and the timer and the reaction were started. 2 duplicate samples for each compound were prepared at each time point. Incubation conditions: 37° C., saturated humidity, and containing 5% CO2. In the test system, the final concentration of the test compound was 1 μM, the final concentration of the control compound was 3 μM, the final concentration of hepatocytes was 0.5×10^6 cells/mL, and the final concentration of the total organic solvent was 0.96%, of which the final concentration of DMSO was 0.1%. […] All samples were mixed and analyzed by LC-MS/MS method. […]

For the molecule `Nc1nccc2c1n(-c1ccc(Oc3ccccc3)cc1)c(=O)n2[C@@H]1CCCN(C(=O)/C=C/CF)C1` [Compound 002], the CLint scaled at 1 μM was determined as 130 mL/min/kg.
